Experimental data reported in PubChem BioAssay AID2060343 (Molecular Pharmacology Branch, DTP, NCI, 2025).

System: 138582-337-R-J1-PDC spheroids with HUVEC/MSC, viability
Assay: Anticancer human tumor 138582-337-R-J1-PDC patient-derived Merkel cell tumor cell line growth inhibition [IpAb]
Conditions: for IC50: curve of first compound; for viability, T/C: stronger effect = lower value
Summary of the method: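 Combinations with ipatasertib or abemaciclib were tested on tumour spheroids holding HUVEC (25%) and MSC (15%) alongside 60% malignant cells. Top concentration was at or near clinical Cmax (10 microM if undefined), descending in half-log steps.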

[1] = second compound 0.01 µM, first compound 0.00316 µM
[2] = second compound 0.01 µM, first compound 0.01 µM
[3] = second compound 0.01 µM, first compound 0.0316 µM
[4] = second compound 0.01 µM, first compound 0.1 µM
[5] = second compound 0.0316 µM, first compound 0.00316 µM
[6] = second compound 0.0316 µM, first compound 0.01 µM
[7] = second compound 0.0316 µM, first compound 0.0316 µM
[8] = second compound 0.0316 µM, first compound 0.1 µM
[9] = second compound 0.1 µM, first compound 0.00316 µM
[10] = second compound 0.1 µM, first compound 0.01 µM
[11] = second compound 0.1 µM, first compound 0.0316 µM
[12] = second compound 0.1 µM, first compound 0.1 µM
[13] = second compound 0.316 µM, first compound 0.00316 µM
[14] = second compound 0.316 µM, first compound 0.01 µM
[15] = second compound 0.316 µM, first compound 0.0316 µM
[16] = second compound 0.316 µM, first compound 0.1 µM
[17] = second compound 1 µM, first compound 0.00316 µM
[18] = second compound 1 µM, first compound 0.01 µM
[19] = second compound 1 µM, first compound 0.0316 µM
[20] = second compound 1 µM, first compound 0.1 µM
[21] = second compound 0.01 µM, first compound 0.316 µM
[22] = second compound 0.01 µM, first compound 1 µM
[23] = second compound 0.01 µM, first compound 3.16 µM
[24] = second compound 0.01 µM, first compound 10 µM
[25] = second compound 0.0316 µM, first compound 0.316 µM
[26] = second compound 0.0316 µM, first compound 1 µM
[27] = second compound 0.0316 µM, first compound 3.16 µM
[28] = second compound 0.0316 µM, first compound 10 µM
[29] = second compound 0.1 µM, first compound 0.316 µM
[30] = second compound 0.1 µM, first compound 1 µM
[31] = second compound 0.1 µM, first compound 3.16 µM
[32] = second compound 0.1 µM, first compound 10 µM
[33] = second compound 0.316 µM, first compound 0.316 µM
[34] = second compound 0.316 µM, first compound 1 µM
[35] = second compound 0.316 µM, first compound 3.16 µM
[36] = second compound 0.316 µM, first compound 10 µM
[37] = second compound 1 µM, first compound 0.316 µM
[38] = second compound 1 µM, first compound 1 µM
[39] = second compound 1 µM, first compound 3.16 µM
[40] = second compound 1 µM, first compound 10 µM
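Note: spheroids exposed to compounds for seven days.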
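Throughout, for viability, T/C: 100% = DMSO vehicle control viability.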

Row | Structure (SMILES) | IC50 (second compound 0.01 µM) [nM] | IC50 (second compound 0.0316 µM) [nM] | IC50 (second compound 0.1 µM) [nM] | IC50 (second compound 0.316 µM) [nM] | IC50 (second compound 1 µM) [nM] | viability, T/C [3] [%] | viability, T/C [4] [%] | viability, T/C [7] [%] | viability, T/C [8] [%] | viability, T/C [11] [%] | viability, T/C [12] [%] | viability, T/C [15] [%] | viability, T/C [16] [%] | viability, T/C [19] [%] | viability, T/C [20] [%] | viability, T/C [21] [%] | viability, T/C [22] [%] | viability, T/C [25] [%] | viability, T/C [26] [%] | viability, T/C [29] [%] | other results
1 | CC(C)n1nc(-c2ccc3oc(N)nc3c2)c2c(N)ncnc21 + CCN1CCN(Cc2ccc(Nc3ncc(F)c(-c4cc(F)c5nc(C)n(C(C)C)c5c4)n3)nc2)CC1 | 59.8 | 26.9 | 52.9 | > 100 | 69.4 | 58.2 | 42.2 | 47.5 | 38.7 | 55.1 | 43.6 | 53.2 | 50.2 | 52.1 | 48.6 | – | – | – | – | – | viability, T/C (second compound 0.01 µM, first compound 0.000316 µM): 102%; viability, T/C (second compound 0.01 µM, first compound 0.001 µM): 88%; viability, T/C [1]: 73.4%; viability, T/C [2]: 76.5%; viability, T/C (second compound 0.0316 µM, first compound 0.000316 µM): 88%; viability, T/C (second compound 0.0316 µM, first compound 0.001 µM): 74.5%; viability, T/C [5]: 90.8%; viability, T/C [6]: 71%; viability, T/C (second compound 0.1 µM, first compound 0.000316 µM): 93.6%; viability, T/C (second compound 0.1 µM, first compound 0.001 µM): 88.4%; viability, T/C [9]: 78.8%; viability, T/C [10]: 68.1%; viability, T/C (second compound 0.316 µM, first compound 0.000316 µM): 96.5%; viability, T/C (second compound 0.316 µM, first compound 0.001 µM): 96.6%; viability, T/C [13]: 80%; viability, T/C [14]: 56.5%; viability, T/C (second compound 1 µM, first compound 0.000316 µM): 88.8%; viability, T/C (second compound 1 µM, first compound 0.001 µM): 93.5%; viability, T/C [17]: 82.6%; viability, T/C [18]: 61.3%
2 | CC1(C)CCC(CN2CCN(c3ccc(C(=O)NS(=O)(=O)c4ccc(NCC5CCOCC5)c([N+](=O)[O-])c4)c(Oc4cnc5[nH]ccc5c4)c3)CC2)=C(c2ccc(Cl)cc2)C1 + CCN1CCN(Cc2ccc(Nc3ncc(F)c(-c4cc(F)c5nc(C)n(C(C)C)c5c4)n3)nc2)CC1 | > 10000 | > 10000 | > 10000 | > 10000 | > 10000 | 90.6 | 83.3 | 93.3 | 86.7 | 86.5 | 79 | 85 | 90.7 | 88.4 | 86.3 | 79.3 | 83.7 | 86.4 | 78.5 | 85 | viability, T/C [23]: 75.1%; viability, T/C [24]: 83.2%; viability, T/C [27]: 83.3%; viability, T/C [28]: 82.9%; viability, T/C [30]: 80%; viability, T/C [31]: 86.4%; viability, T/C [32]: 89.5%; viability, T/C [33]: 81.7%; viability, T/C [34]: 86.8%; viability, T/C [35]: 90.8%; viability, T/C [36]: 106%; viability, T/C [37]: 75.1%; viability, T/C [38]: 81%; viability, T/C [39]: 83.7%; viability, T/C [40]: 109%
3 | CCCS(=O)(=O)Nc1ccc(F)c(C(=O)c2c[nH]c3ncc(-c4ccc(Cl)cc4)cc23)c1F + CCN1CCN(Cc2ccc(Nc3ncc(F)c(-c4cc(F)c5nc(C)n(C(C)C)c5c4)n3)nc2)CC1 | > 10000 | > 10000 | 7490 | > 10000 | > 10000 | 99.8 | 103 | 97.9 | 96.8 | 93.2 | 87 | 105 | 95 | 99.4 | 93.8 | 95.9 | 98.8 | 96.8 | 97.2 | 93.5 | viability, T/C [23]: 112%; viability, T/C [24]: 81.9%; viability, T/C [27]: 97.8%; viability, T/C [28]: 74.8%; viability, T/C [30]: 101%; viability, T/C [31]: 93.7%; viability, T/C [32]: 35.4%; viability, T/C [33]: 106%; viability, T/C [34]: 90.6%; viability, T/C [35]: 103%; viability, T/C [36]: 78.2%; viability, T/C [37]: 89.1%; viability, T/C [38]: 86.3%; viability, T/C [39]: 94.1%; viability, T/C [40]: 61.1%
4 | COc1c(OCCCN2CCOCC2)ccc2c3n(c(=NC(=O)c4cnc(N)nc4)nc12)CCN3 + CCN1CCN(Cc2ccc(Nc3ncc(F)c(-c4cc(F)c5nc(C)n(C(C)C)c5c4)n3)nc2)CC1 | 48.1 | 42.1 | 43.2 | 42.7 | 31.3 | 58.5 | 33.7 | 56.7 | 35.1 | 55.4 | 32.8 | 57.5 | 31.4 | 56.6 | 18.8 | 15.2 | 1.9 | 14.7 | 1.66 | 11.6 | viability, T/C [1]: 91.8%; viability, T/C [2]: 80.9%; viability, T/C [5]: 93.2%; viability, T/C [6]: 73.2%; viability, T/C [9]: 84.1%; viability, T/C [10]: 76.5%; viability, T/C [30]: 1.67%; viability, T/C [13]: 85.9%; viability, T/C [14]: 74.2%; viability, T/C [33]: 11.8%; viability, T/C [34]: 2.07%; viability, T/C [17]: 98.3%; viability, T/C [18]: 72%; viability, T/C [37]: 5.6%; viability, T/C [38]: 2.69%
5 | Cc1nc(NC(=O)N2CCCC2C(N)=O)sc1-c1ccnc(C(C)(C)C(F)(F)F)c1 (stereo not given) + CCN1CCN(Cc2ccc(Nc3ncc(F)c(-c4cc(F)c5nc(C)n(C(C)C)c5c4)n3)nc2)CC1 | 1850 | 1410 | 1140 | 1010 | 462 | 95.2 | 81.4 | 94.1 | 82.3 | 88.1 | 78.7 | 90.8 | 74.8 | 89.3 | 84.2 | 73.2 | 59 | 69 | 55.4 | 59.2 | viability, T/C [23]: 45.4%; viability, T/C [24]: 13.7%; viability, T/C [27]: 40.1%; viability, T/C [28]: 18.2%; viability, T/C [30]: 56.4%; viability, T/C [31]: 35.2%; viability, T/C [32]: 9.25%; viability, T/C [33]: 69.7%; viability, T/C [34]: 48.2%; viability, T/C [35]: 32.1%; viability, T/C [36]: 6.45%; viability, T/C [37]: 54.4%; viability, T/C [38]: 35.1%; viability, T/C [39]: 10.7%; viability, T/C [40]: 1.63%
